Assay results from publication PMC10114980, “Triple targeting of mutant EGFR^L858R/T790M, COX-2, and 15-LOX: design and synthesis of novel quinazolinone tethered phenyl urea derivatives for anti-inflammatory and anticancer evaluation” (Journal of Enzyme Inhibition and Medicinal Chemistry, 2023).
“And” between values parts separate entries of the source, which are not always exact repeats. Equal entries are not always repeated.

What was measured:
BT-549 = test: NCI single dose screen, BT-549; assay type: cell-based; conditions: Homo sapiens; BT-549, breast cancer; single dose 10^−5 M; read-out: growth inhibition percentage
Method: (§1) Screening of the anticancer activity of the newly synthesised compounds (6a, 6c, 6d, 6e, 6j, 6l, 6m, 6n, 6o, and 6p) was performed by the US National Cancer Institute (NCI) using 60 different human tumour cell lines in accordance with standard procedures formerly reported.
(§2) In vitro anticancer screening was carried out for the selected compounds at a single dose (10^−5 M) against 60 different human tumour cell lines of nine different cancer cell types: leukaemia, lung, colon, CNS, melanoma, ovarian, renal, prostate, and breast cancers.

CCRF-CEM = test: NCI single dose screen, CCRF-CEM; assay type: cell-based; conditions: Homo sapiens, leukaemia, single dose 10^−5 M, read-out: growth inhibition percentage
Method: as §1, §2

MALME-3M = test: NCI single dose screen, MALME-3M; assay type: cell-based; conditions: Homo sapiens, melanoma, single dose 10^−5 M, read-out: growth inhibition percentage
Method: as §1, §2

[1] = test system: LPS-induced IL-6 production in RAW 264.7 cells; test: IL-6 production in LPS-activated RAW 264.7 cells (ELISA); assay type: cell-based; conditions: LPS-activated RAW 264.7 cells treated with 25 µM of the compound
[2] = test system: LPS-induced TNF-α production in RAW 264.7 cells; test: TNF-α production in LPS-activated RAW 264.7 cells (ELISA); assay type: cell-based; conditions: for TNF-α concentration: LPS-activated RAW 264.7 cells treated with 25 µM of the compound
UACC-62 = test: NCI single dose screen, UACC-62; assay type: cell-based; conditions: Homo sapiens; UACC-62, melanoma; single dose 10^−5 M; read-out: growth inhibition percentage
Method: as §1, §2

786-0 = test: NCI single dose screen, 786-0; assay type: cell-based; conditions: Homo sapiens; 786-0, renal cancer; single dose 10^−5 M; read-out: growth inhibition percentage
Method: as §1, §2

SK-MEL-5 = test: NCI single dose screen, SK-MEL-5; assay type: cell-based; conditions: Homo sapiens; SK-MEL-5, melanoma; single dose 10^−5 M; read-out: growth inhibition percentage
Method: as §1, §2

SNB-19 = test: NCI single dose screen, SNB-19; assay type: cell-based; conditions: Homo sapiens; SNB-19, CNS cancer; single dose 10^−5 M; read-out: growth inhibition percentage
Method: as §1, §2

PC-3 = test: NCI single dose screen, PC-3; assay type: cell-based; conditions: Homo sapiens; PC-3, prostate cancer; single dose 10^−5 M; read-out: growth inhibition percentage
Method: as §1, §2

U251 = test: NCI single dose screen, U251; assay type: cell-based; conditions: Homo sapiens, U-251; U251, CNS cancer; single dose 10^−5 M; read-out: growth inhibition percentage
Method: as §1, §2

[3] = test system: 60 NCI cancer cell lines panel; test: NCI 60 cell lines panel single dose screen, whole panel; assay type: cell-based, human; conditions: single dose 10^−5 M; for inhibition at 10 µM: Homo sapiens, 60 cell, read-out: growth inhibition percentages range over the sensitive cell lines; for number of cell lines with anticancer activity out of the 60 NCI cell lines: GI higher than 10%
Method: as §1, §2

UACC-257 = test: NCI single dose screen, UACC-257; assay type: cell-based; conditions: Homo sapiens; UACC-257, melanoma; single dose 10^−5 M; read-out: growth inhibition percentage
Method: as §1, §2

[4] = 25 µM, LPS-activated RAW 264.7 cells

| SMILES | inhibition at 10 µM (BT-549) [%] | inhibition at 10 µM (CCRF-CEM) [%] | inhibition at 10 µM (MALME-3M) [%] | IL-6 concentration [1] | TNF-α concentration [2] | inhibition at 10 µM (UACC-62) [%] | inhibition at 10 µM (786-0) [%] | inhibition at 10 µM (SK-MEL-5) [%] | inhibition at 10 µM (SNB-19) [%] | inhibition at 10 µM (PC-3) [%] | inhibition at 10 µM (U251) [%] | anticancer activity in the NCI 60 panel (in words) [3] | inhibition at 10 µM (UACC-257) [%] | inhibition at 10 µM [3] [%] | number of cell lines with anticancer activity out of the 60 NCI cell lines [3] | TNF-α level, times lower than celecoxib [2, 4] [times] | TNF-α level, times lower than diclofenac [2, 4] [times] |
| --- | --- | --- | --- | --- | --- | --- | --- | --- | --- | --- | --- | --- | --- | --- | --- | --- | --- |
| CN1CN(NC(=O)Nc2ccccc2)C(=O)c2ccccc21 [Compound 6a, 1-(1-Methyl-4-oxo-1,4-dihydroquinazolin-3(2H)-yl)-3-phenylurea] | < 10 | < 10 | < 10 | 173.7 ± 4.77 pg/mL | 1157.00 ± 78.71 pg/mL | < 10 | < 10 | < 10 | < 10 | < 10 | < 10 | did not show any anticancer activities | < 10 | – | – | – | – |
| CN1c2ccccc2C(=O)N(NC(=O)Nc2ccc(F)cc2)C1c1ccccc1 (stereo not drawn) [Compound 6m, 1-(4-Fluorophenyl)-3-(1-methyl-4-oxo-2-phenyl-1,4-dihydroquinazolin-3(2H)-yl)urea] | < 10 | < 10 | 10.8 | 290.7 ± 5.5 pg/mL | 935.60 ± 3.85 pg/mL | 20.7 | 12.9 | 15.9 | < 10 | 22.1 | < 10 | – | < 10 | 10.5 to 40.1 | 19 | – | – |
| COc1ccc(NC(=O)NN2C(=O)c3ccccc3N(C)C2c2ccc(OC)cc2)cc1 (stereo not drawn) [Compound 6j, 1-(4-Methoxyphenyl)-3-(2-(4-methoxyphenyl)-1-methyl-4-oxo-1,4-dihydroquinazolin-3(2H)-yl)urea] | 70.1 | < 10 | < 10 | 164.6 ± 5.09 pg/mL | 757.30 pg/mL and 757.30 ± 2.50 pg/mL | < 10 | 34.2 | < 10 | < 10 | 10.8 | < 10 | – | 21.9 | – | – | – | – |
| CN1c2ccccc2C(=O)N(NC(=O)Nc2ccc(F)cc2)C1c1ccc(F)cc1 (stereo not drawn) [Compound 6n, 1-(4-Fluorophenyl)-3-(2–(4-fluorophenyl)-1-methyl-4-oxo-1,4-dihydroquinazolin-3(2H)-yl)urea] | < 10 | < 10 | 17.6 | 535.3 ± 15.25 pg/mL | 1981.00 ± 209.9 pg/mL | 38.1 | < 10 | 20.3 | < 10 | 38.1 | < 10 | – | < 10 | 10.1 to 57.1 | 32 | – | – |
| COc1ccc(C2N(NC(=O)Nc3ccc(F)cc3)C(=O)c3ccccc3N2C)cc1 (stereo not drawn) [Compound 6p, 1-(4-Fluorophenyl)-3-(2–(4-methoxyphenyl)-1-methyl-4-oxo-1,4-dihydroquinazolin-3(2H)-yl)urea] | < 10 | < 10 | < 10 | 237.2 ± 3.19 pg/mL | 1549.00 ± 20.25 pg/mL | < 10 | < 10 | < 10 | < 10 | 15.2 | < 10 | – | < 10 | – | – | – | – |
| CC1N(NC(=O)Nc2ccc(F)cc2)C(=O)c2ccccc2N1C (stereo not drawn) [Compound 6l, 1–(1,2-Dimethyl-4-oxo-1,4-dihydroquinazolin-3(2H)-yl)-3-(4-fluorophenyl)urea] | < 10 | < 10 | < 10 | 536.8 ± 3.55 pg/mL | 1250.00 ± 5.82 pg/mL | < 10 | < 10 | < 10 | < 10 | < 10 | < 10 | – | < 10 | – | – | – | – |
| CN1c2ccccc2C(=O)N(NC(=O)Nc2ccc(F)cc2)C1c1ccc([N+](=O)[O-])cc1 (stereo not drawn) [Compound 6o, 1-(4-Fluorophenyl)-3–(1-methyl-2-(4-nitrophenyl)-4-oxo-1,4-dihydroquinazolin-3(2H)-yl)urea] | < 10 | < 10 | 14.1 | 37.23 pg/mL and 37.23 ± 1.19 pg/mL | 39.37 pg/mL and 39.37 ± 1.21 pg/mL | 27.4 | < 10 | 13.7 | 11.4 | 31 | < 10 | – | < 10 | 10.7 to 41.3 | 21 | ~10 | ~17 |
| CN1c2ccccc2C(=O)N(NC(=O)Nc2ccccc2)C1c1ccc([N+](=O)[O-])cc1 (stereo not drawn) [Compound 6e, 1-(1-Methyl-2-(4-nitrophenyl)-4-oxo-1,4-dihydroquinazolin-3(2H)-yl)-3-phenylurea] | 67.1 | < 10 | < 10 | 198.8 ± 6.08 pg/mL | 1929.00 ± 53.88 pg/mL | < 10 | 39.9 | < 10 | < 10 | < 10 | < 10 | – | < 10 | – | – | – | – |
| CN1c2ccccc2C(=O)N(NC(=O)Nc2ccccc2)C1c1ccccc1 (stereo not drawn) [Compound 6c, 1-(1-Methyl-4-oxo-2-phenyl-1,4-dihydroquinazolin-3(2H)-yl)-3-phenylurea] | < 10 | < 10 | < 10 | 468.4 ± 87.46 pg/mL | 955.00 ± 4.66 pg/mL | < 10 | 35.3 | < 10 | < 10 | < 10 | < 10 | – | < 10 | – | – | – | – |
| CN1c2ccccc2C(=O)N(NC(=O)Nc2ccccc2)C1c1ccc(F)cc1 (stereo not drawn) [Compound 6d, 1-(2-(4-Fluorophenyl)-1-methyl-4-oxo-1,4-dihydroquinazolin-3(2H)-yl)-3-phenylurea] | < 10 | < 10 | < 10 | 358.7 ± 12.85 pg/mL | 1222.00 ± 12.70 pg/mL | 15.1 | 11.9 | < 10 | < 10 | 18.6 | < 10 | – | < 10 | – | – | – | – |
